Results: US8969357B2, “Methods for treating HCV” (AbbVie Inc., priority 2011, dated 2015)

Tests used:
[1] = system: 1b-Con1 replicons; assay: Predominant resistant variants selected in genotype 1b replicons; format: cell-based, HCV
Protocol: (§1) Predominant resistant variants selected by Compound 1, 2, or 4 in genotype 1 replicons were also determined. For Compound 1, the predominant resistance variants in 1a-H77 replicons include R155K, D168A and D168V with fold resistance of 26, 48 and 128, respectively; and the predominant resistance variants in 1b-Con1 replicons include R155K, A156T and D168V with fold resistance of 48, 9 and 190, respectively. For Compound 2, the predominant resistance variants in 1a-H77 replicons include C316Y, M414T, Y448C and S556G with fold resistance of 1600, 36, 980 and 15, respectively; and the predominant resistance variants in 1b-Con1 replicons include C316Y, M414T and D559G with fold resistance of 1400, 26 and 100, respectively. For Compound 4, the predominant resistance variants in 1a-H77 replicons include M28T, M28V, Q30R, Y93C and Y93H with fold resistance of 9000, 60, 800, 1700 and 41000, respectively; and the predominant resistance variants in 1b-Con1 replicons include Y93H with fold resistance of 55.

[2] = system: 1a-H77 replicons; assay: Predominant resistant variants selected in genotype 1a replicons; format: cell-based, HCV
Protocol: as §1

`Cc1cnc(C(=O)N[C@H]2CCCCC/C=C\[C@@H]3C[C@@]3(C(=O)NS(=O)(=O)C3CC3)NC(=O)[C@@H]3C[C@@H](Oc4nc5ccccc5c5ccccc45)CN3C2=O)cn1` [Compound 1, (2R,6S,13aS,14aR,16aS,Z)—N-(cyclopropylsulfonyl)-6-(5-methylpyrazine-2-carboxamido)-5,16-dioxo-2-(phenanthridin-6-yloxy)-1,2,3,5,6,7,8,9,10,11,13a,14,14a,15,16,16a-hexadecahydrocyclopropa[e]pyrrolo[1,2-a][1,4]diazacyclopentadecine-14a-carboxamide] showed a fold resistance ([1]; variant A156T) of 9 fold, a fold resistance ([1]; variant D168V) of 190 fold and a fold resistance ([1]; variant R155K) of 48 fold. It also gave a fold resistance ([2]; variant D168A) of 48 fold, a fold resistance ([2]; variant D168V) of 128 fold and a fold resistance ([2]; variant R155K) of 26 fold.
In the case of `COc1c(-c2ccc3cc(NS(C)(=O)=O)ccc3c2)cc(-n2ccc(=O)[nH]c2=O)cc1C(C)(C)C` [Compound 2, N-(6-(3-tert-butyl-5-(2,4-dioxo-3,4-dihydropyrimidin-1(2H)-yl)-2-methoxyphenyl)naphthalen-2-yl)methanesulfonamide], the fold resistance ([1]; variant C316Y) is reported as 1400 fold, the fold resistance ([1]; variant D559G) is reported as 100 fold and the fold resistance ([1]; variant M414T) is reported as 26 fold. For the same compound, the fold resistance ([2]; variant C316Y) was 1600 fold, the fold resistance ([2]; variant M414T) was 36 fold and the fold resistance ([2]; variant S556G) was 15 fold. The fold resistance ([2]; variant Y448C) was 980 fold.
Compound `COC(=O)N[C@H](C(=O)N1CCC[C@H]1C(=O)Nc1ccc([C@@H]2CC[C@@H](c3ccc(NC(=O)[C@@H]4CCCN4C(=O)[C@@H](NC(=O)OC)C(C)C)cc3)N2c2ccc(C(C)(C)C)cc2)cc1)C(C)C` [Compound 4, dimethyl (2S,2′S)-1,1′-((2S,2′S)-2,2′-(4,4′-(2S,5S)-1-(4-tert-butylphenyl)pyrrolidine-2,5,diyl)bis(4,1-phenylene))bis(azanediyl)bis(oxomethylene)bis(pyrrolidine-2,1-diyl)bis(3-methyl-1-oxobutane-2,1-diyl)dicarbamate] has a fold resistance ([1]; variant Y93H) of 55 fold, a fold resistance ([2]; variant M28T) of 9000 fold and a fold resistance ([2]; variant M28V) of 60 fold. The fold resistance ([2]; variant Q30R) was 800 fold, the fold resistance ([2]; variant Y93C) was 1700 fold and the fold resistance ([2]; variant Y93H) was 41000 fold.
